Experimental data published in patent US10323038B2, “Pyrazole compounds and methods of making and using same” (ABIDE THERAPEUTICS, INC., priority 2015, dated 2019).

Legend:
MAGL = MAGL (Mus musculus (Mouse), UniProt O35678); experiment: In vitro competitive activity-based protein profiling, MAGL (mouse); assay type: biochemical; conditions: for inhibition at 1 µM: read-out: MAGL % inh. 1 μM (mouse)
Method: (§1) In Vitro Competitive Activity-Based Protein Profiling.
(§2) Proteomes (mouse brain membrane fraction or cell lysates for mouse assays; human prefrontal cortex or cell membrane fractions for human assays) (50 μL, 1.0 mg/mL total protein concentration) were preincubated with varying concentrations of inhibitors at 37° C. After 30 min, FP—Rh or HT-01 (1.0 μL, 50 μM in DMSO) was added and the mixture was incubated for another 30 min at 37° C. Reactions were quenched with SDS loading buffer (15 μL-4×) and run on SDS-PAGE. Following gel imaging, serine hydrolase activity was determined by measuring fluorescent intensity of gel bands corresponding to MAGL and FAAH using ImageJ 1.43u software.

FAAH = FAAH (Mus musculus (Mouse), UniProt O08914); experiment: In vitro competitive activity-based protein profiling, FAAH (mouse); assay type: biochemical; conditions: for inhibition at 1 µM: read-out: FAAH % inh. 1 μM (mouse)
Method: as §1, §2

Chain of MAGL (O35678 whole entry): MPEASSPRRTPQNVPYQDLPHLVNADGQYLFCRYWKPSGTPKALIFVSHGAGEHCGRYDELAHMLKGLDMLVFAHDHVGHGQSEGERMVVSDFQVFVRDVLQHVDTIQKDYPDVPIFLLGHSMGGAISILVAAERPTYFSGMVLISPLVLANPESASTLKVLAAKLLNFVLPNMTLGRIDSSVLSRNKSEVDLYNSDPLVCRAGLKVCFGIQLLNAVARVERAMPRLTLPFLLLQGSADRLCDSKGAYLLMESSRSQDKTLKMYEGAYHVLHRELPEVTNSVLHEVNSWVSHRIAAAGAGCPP
Chain of FAAH (O08914 whole entry): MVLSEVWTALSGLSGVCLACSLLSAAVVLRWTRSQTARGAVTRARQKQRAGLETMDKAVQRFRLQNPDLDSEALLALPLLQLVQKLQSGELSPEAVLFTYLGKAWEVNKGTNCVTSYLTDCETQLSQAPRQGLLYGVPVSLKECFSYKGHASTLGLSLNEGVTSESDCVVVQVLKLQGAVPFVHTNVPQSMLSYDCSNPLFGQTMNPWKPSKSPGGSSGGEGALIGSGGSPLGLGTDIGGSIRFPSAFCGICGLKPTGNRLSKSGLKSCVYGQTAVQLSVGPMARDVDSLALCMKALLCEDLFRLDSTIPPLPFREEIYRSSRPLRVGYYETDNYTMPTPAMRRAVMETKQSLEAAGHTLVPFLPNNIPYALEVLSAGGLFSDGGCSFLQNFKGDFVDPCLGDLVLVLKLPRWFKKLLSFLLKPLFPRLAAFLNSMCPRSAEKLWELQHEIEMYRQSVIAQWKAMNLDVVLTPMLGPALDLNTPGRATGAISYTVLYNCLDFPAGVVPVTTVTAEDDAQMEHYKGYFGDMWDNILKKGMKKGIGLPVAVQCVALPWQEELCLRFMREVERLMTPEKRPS

With `CC(=O)N(C)c1cnn(C(=O)N2CCC3(CCN(Cc4cc(Cl)cc(Cl)c4)C3)C2)c1` (stereo not shown) [Example 53, N-(1-(7-(3,5-dichlorobenzyl)-2,7-diazaspiro[4.4]nonane-2-carbonyl)-1H-pyrazol-4-yl)-N-methylacetamide] the IC50 (MAGL) was 100 to 1000 nM, the inhibition at 1 µM (MAGL) was ≥ 75% and the IC50 (FAAH) was ≤ 100 nM. For the same compound, the inhibition at 1 µM (FAAH) was ≥ 75%.

In the case of `CC(=O)N(C)c1cnn(C(=O)N2CCC3(CCN(Cc4ccc(C)cc4Cl)C3)C2)c1` (stereo not shown) [Example 55, N-(1-(7-(2-chloro-4-methylbenzyl)-2,7-diazaspiro[4.4]nonane-2-carbonyl)-1H-pyrazol-4-yl)-N-methylacetamide], the IC50 (MAGL) is reported as 100 to 1000 nM, the inhibition at 1 µM (MAGL) is reported as ≥ 75% and the IC50 (FAAH) is reported as ≤ 100 nM. The inhibition at 1 µM (FAAH) was ≥ 75%.

For `CC(=O)N(C)c1cnn(C(=O)N2CCC3(CCN(Cc4cccc(Cl)c4C)C3)C2)c1` (stereo not shown) [Example 57, N-(1-(7-(3-chloro-2-methylbenzyl)-2,7-diazaspiro[4.4]nonane-2-carbonyl)-1H-pyrazol-4-yl)-N-methylacetamide], the IC50 (MAGL) was 100 to 1000 nM, the inhibition at 1 µM (MAGL) was ≥ 75% and the IC50 (FAAH) was ≤ 100 nM. For the same compound, the inhibition at 1 µM (FAAH) was ≥ 75%.

`CC(=O)N(C)c1cnn(C(=O)N2CCC3(CCN(Cc4cccc(Cl)c4Cl)C3)C2)c1` (stereo not shown) [Example 59, N-(1-(7-(2,3-dichlorobenzyl)-2,7-diazaspiro[4.4]nonane-2-carbonyl)-1H-pyrazol-4-yl)-N-methylacetamide] was tested, and the IC50 (MAGL) was 100 to 1000 nM, the inhibition at 1 µM (MAGL) was ≥ 75% and the IC50 (FAAH) was ≤ 100 nM. The inhibition at 1 µM (FAAH) was ≥ 75%.

For `CC(=O)N(C)c1cnn(C(=O)N2CCC3(CCN(Cc4ccc(C(F)(F)F)c(N5CCOCC5)c4)C3)C2)c1` (stereo not shown) [Example 61, N-methyl-N-(1-(7-(3-morpholino-4-(trifluoromethyl)benzyl)-2,7-diazaspiro[4.4]nonane-2-carbonyl)-1H-pyrazol-4-yl)acetamide], the IC50 (MAGL) was ≤ 100 nM, the inhibition at 1 µM (MAGL) was ≥ 75% and the IC50 (FAAH) was ≤ 100 nM. The inhibition at 1 µM (FAAH) was ≥ 75%.

For `CC(=O)N(C)c1cnn(C(=O)N2CCC3(CCN(Cc4cc(Cl)cc(N5CCOCC5)c4)C3)C2)c1` (stereo not shown) [Example 63, N-(1-(7-(3-chloro-5-morpholinobenzyl)-2,7-diazaspiro[4.4]nonane-2-carbonyl)-1H-pyrazol-4-yl)-N-methylacetamide], the inhibition at 1 µM (MAGL) was ≥ 75% and the inhibition at 1 µM (FAAH) was ≥ 75%.

`CC(=O)N(C)c1cnn(C(=O)N2CCC3(CCN(Cc4cccc(C(F)(F)F)c4)C3)C2)c1` (stereo not shown) [Example 64, N-methyl-N-(1-(7-(3-(trifluoromethyl)benzyl)-2,7-diazaspiro[4.4]nonane-2-carbonyl)-1H-pyrazol-4-yl)acetamide] was tested, and the IC50 (MAGL) was 100 to 1000 nM, the inhibition at 1 µM (MAGL) was ≥ 75% and the IC50 (FAAH) was ≤ 100 nM. For the same compound, the inhibition at 1 µM (FAAH) was ≥ 75%.

For `CC(=O)N(C)c1cnn(C(=O)N2CCC3(CCN(Cc4ccc(N5CCCC5)c(Cl)c4)C3)C2)c1` (stereo not shown) [Example 67, N-(1-(7-(3-chloro-4-(pyrrolidin-1-yl)benzyl)-2,7-diazaspiro[4.4]nonane-2-carbonyl)-1H-pyrazol-4-yl)-N-methylacetamide], the IC50 (MAGL) was 100 to 1000 nM, the inhibition at 1 µM (MAGL) was ≥ 75% and the IC50 (FAAH) was ≤ 100 nM. For the same compound, the inhibition at 1 µM (FAAH) was ≥ 75%.

With `CC(=O)N(C)c1cnn(C(=O)N2CCC3(CCN(Cc4cc(N5CCOCC5)cc(C(F)(F)F)c4)C3)C2)c1` (stereo not shown) [Example 68, N-methyl-N-(1-(7-(3-morpholino-5-(trifluoromethyl)benzyl)-2,7-diazaspiro[4.4]nonane-2-carbonyl)-1H-pyrazol-4-yl)acetamide] the IC50 (MAGL) was 100 to 1000 nM, the inhibition at 1 µM (MAGL) was ≥ 75% and the IC50 (FAAH) was ≤ 100 nM. The inhibition at 1 µM (FAAH) was ≥ 75%.

With `CC(=O)N(C)c1cnn(C(=O)N2CCC3(CCN(Cc4ccc(N5CCCC5)c(C(F)(F)F)c4)C3)C2)c1` (stereo not shown) [Example 69, N-methyl-N-(1-(7-(4-(pyrrolidin-1-yl)-3-(trifluoromethyl)benzyl)-2,7-diazaspiro[4.4]nonane-2-carbonyl)-1H-pyrazol-4-yl)acetamide] the inhibition at 1 µM (MAGL) was ≥ 75% and the inhibition at 1 µM (FAAH) was ≥ 75%.

`CC(=O)N(C)c1cnn(C(=O)N2CCC3(CCN(Cc4cc(Cl)ccc4C(F)(F)F)C3)C2)c1` (stereo not shown) [Example 70, N-(1-(7-(5-chloro-2-(trifluoromethyl)benzyl)-2,7-diazaspiro[4.4]nonane-2-carbonyl)-1H-pyrazol-4-yl)-N-methylacetamide] was tested, and the IC50 (MAGL) was ≤ 100 nM, the inhibition at 1 µM (MAGL) was ≥ 75% and the IC50 (FAAH) was ≤ 100 nM. For the same compound, the inhibition at 1 µM (FAAH) was ≥ 75%.

For `CC(=O)N(C)c1cnn(C(=O)N2CCC3(CCN(Cc4cc(C(F)(F)F)ccc4Cl)C3)C2)c1` (stereo not shown) [Example 71, N-(1-(7-(2-chloro-5-(trifluoromethyl)benzyl)-2,7-diazaspiro[4.4]nonane-2-carbonyl)-1H-pyrazol-4-yl)-N-methylacetamide], the inhibition at 1 µM (MAGL) was ≥ 75% and the inhibition at 1 µM (FAAH) was ≥ 75%.

In the case of `CC(=O)N(C)c1cnn(C(=O)N2CCC3(CCN(Cc4cc(C(F)(F)F)ccc4C(F)(F)F)C3)C2)c1` (stereo not shown) [Example 72, N-(1-(7-(2,5-bis(trifluoromethyl)benzyl)-2,7-diazaspiro[4.4]nonane-2-carbonyl)-1H-pyrazol-4-yl)-N-methylacetamide], the inhibition at 1 µM (MAGL) is reported as ≥ 75% and the inhibition at 1 µM (FAAH) is reported as ≥ 75%.

`CC(=O)N(C)c1cnn(C(=O)N2CCC3(CCN(Cc4cc(N5CCCC5)ccc4C(F)(F)F)C3)C2)c1` (stereo not shown) [Example 73, N-methyl-N-(1-(7-(5-(pyrrolidin-1-yl)-2-(trifluoromethyl)benzyl)-2,7-diazaspiro[4.4]nonane-2-carbonyl)-1H-pyrazol-4-yl)acetamide] was tested, and the inhibition at 1 µM (MAGL) was ≥ 75% and the inhibition at 1 µM (FAAH) was ≥ 75%.

`CC(=O)N(C)c1cnn(C(=O)N2CCC3(CCN(Cc4cc(C(F)(F)F)ccc4N4CCCC4)C3)C2)c1` (stereo not shown) [Example 74, N-methyl-N-(1-(7-(2-(pyrrolidin-1-yl)-5-(trifluoromethyl)benzyl)-2,7-diazaspiro[4.4]nonane-2-carbonyl)-1H-pyrazol-4-yl)acetamide] was tested, and the inhibition at 1 µM (MAGL) was ≥ 75% and the inhibition at 1 µM (FAAH) was 50 to 75%.

With `CC(=O)N(C)c1cnn(C(=O)N2CCC3(CCN(Cc4cccc(Cl)c4)C3)C2)c1` (stereo not shown) [Example 78, N-(1-(7-(3-chlorobenzyl)-2,7-diazaspiro[4.4]nonane-2-carbonyl)-1H-pyrazol-4-yl)-N-methylacetamide] the IC50 (MAGL) was 1000 to 10000 nM, the inhibition at 1 µM (MAGL) was 50 to 75% and the IC50 (FAAH) was ≤ 100 nM. For the same compound, the inhibition at 1 µM (FAAH) was ≥ 75%.

For `CC(=O)N(C)c1cnn(C(=O)N2CCC3(CCN(Cc4cccc(N5CCCC5)c4)C3)C2)c1` (stereo not shown) [Example 82, N-methyl-N-(1-(7-(3-(pyrrolidin-1-yl)benzyl)-2,7-diazaspiro[4.4]nonane-2-carbonyl)-1H-pyrazol-4-yl)acetamide], the inhibition at 1 µM (MAGL) was 25 to 50% and the inhibition at 1 µM (FAAH) was ≥ 75%.

`CC(=O)N(C)c1cnn(C(=O)N2CC3(CCN(Cc4cccc(C)c4)CC3)C2)c1` [Example 83, N-methyl-N-(1-(7-(3-methylbenzyl)-2,7-diazaspiro[3.5]nonane-2-carbonyl)-1H-pyrazol-4-yl)acetamide] was tested, and the inhibition at 1 µM (MAGL) was 25 to 50% and the inhibition at 1 µM (FAAH) was 25 to 50%.

In the case of `CC(=O)N(C)c1cnn(C(=O)N2CC3(CCN(Cc4ccc(Cl)cc4)CC3)C2)c1` [Example 84, N-(1-(7-(4-chlorobenzyl)-2,7-diazaspiro[3.5]nonane-2-carbonyl)-1H-pyrazol-4-yl)-N-methylacetamide], the inhibition at 1 µM (MAGL) is reported as 50 to 75% and the inhibition at 1 µM (FAAH) is reported as ≥ 75%.

`CC(=O)N(C)c1cnn(C(=O)N2CC3(CCN(Cc4cccc(Cl)c4)CC3)C2)c1` [Example 85, N-(1-(7-(3-chlorobenzyl)-2,7-diazaspiro[3.5]nonane-2-carbonyl)-1H-pyrazol-4-yl)-N-methylacetamide] was tested, and the inhibition at 1 µM (MAGL) was 50 to 75% and the inhibition at 1 µM (FAAH) was ≥ 75%.

With `CC(=O)N(C)c1cnn(C(=O)N2CC3(CCN(Cc4ccccc4Cl)CC3)C2)c1` [Example 86, N-(1-(7-(2-chlorobenzyl)-2,7-diazaspiro[3.5]nonane-2-carbonyl)-1H-pyrazol-4-yl)-N-methylacetamide] the inhibition at 1 µM (MAGL) was 50 to 75% and the inhibition at 1 µM (FAAH) was ≥ 75%.

`CC(=O)N(C)c1cnn(C(=O)N2CC3(CCN(Cc4ccc(C)cc4)CC3)C2)c1` [Example 87, N-methyl-N-(1-(7-(4-methylbenzyl)-2,7-diazaspiro[3.5]nonane-2-carbonyl)-1H-pyrazol-4-yl)acetamide] was tested, and the inhibition at 1 µM (MAGL) was 50 to 75% and the inhibition at 1 µM (FAAH) was 25 to 50%.

With `CC(=O)N(C)c1cnn(C(=O)N2CC3(CCN(Cc4cccc(C(F)(F)F)c4)CC3)C2)c1` [Example 88, N-methyl-N-(1-(7-(3-(trifluoromethyl)benzyl)-2,7-diazaspiro[3.5]nonane-2-carbonyl)-1H-pyrazol-4-yl)acetamide] the inhibition at 1 µM (MAGL) was 50 to 75% and the inhibition at 1 µM (FAAH) was ≥ 75%.

`CC(=O)N(C)c1cnn(C(=O)N2CC3(CCN(Cc4ccccc4C)CC3)C2)c1` [Example 89, N-methyl-N-(1-(7-(2-methylbenzyl)-2,7-diazaspiro[3.5]nonane-2-carbonyl)-1H-pyrazol-4-yl)acetamide] showed an inhibition at 1 µM (MAGL) of 25 to 50% and an inhibition at 1 µM (FAAH) of 25 to 50%.

`CC(=O)N(C)c1cnn(C(=O)N2CC3CN(Cc4ccc(C)cc4)CC3C2)c1` (stereo not shown) [Example 91, N-methyl-N-(1-(5-(4-methylbenzyl)octahydropyrrolo[3,4-c]pyrrole-2-carbonyl)-1H-pyrazol-4-yl)acetamide] was tested, and the IC50 (MAGL) was 100 to 1000 nM, the inhibition at 1 µM (MAGL) was 50 to 75% and the IC50 (FAAH) was 100 to 1000 nM. The inhibition at 1 µM (FAAH) was ≥ 75%.

With `CC(=O)N(C)c1cnn(C(=O)N2CC3CN(Cc4cccc(C)c4)CC3C2)c1` (stereo not shown) [Example 92, N-methyl-N-(1-(5-(3-methylbenzyl)octahydropyrrolo[3,4-c]pyrrole-2-carbonyl)-1H-pyrazol-4-yl)acetamide] the IC50 (MAGL) was 100 to 1000 nM, the inhibition at 1 µM (MAGL) was ≥ 75% and the IC50 (FAAH) was ≤ 100 nM. The inhibition at 1 µM (FAAH) was ≥ 75%.
